Reference: patent US7160874B2, “Phenylalanine derivatives” (Ajinomoto Co., Inc., priority 1999, dated 2007)

What was measured:
integrin α4β7 = biological target: T1, integrin α4β7 (Homo sapiens, UniProt P13612+P26010); test: VCAM antagonistic activity (VCAM-1/α4β7 binding assay); type: cell-based; details: RPMI-8866 cells binding to VCAM-1; read-out: VCAM antagonistic activity (IC50) α4β7
T1 construct: lymphoma cell strain RPMI-8866 of human B cells, known to express integrin α4β7; endogenous in cells; host or cells: RPMI-8866 (human B lymphoma cell line)
T1 sequence (P13612 34-1032): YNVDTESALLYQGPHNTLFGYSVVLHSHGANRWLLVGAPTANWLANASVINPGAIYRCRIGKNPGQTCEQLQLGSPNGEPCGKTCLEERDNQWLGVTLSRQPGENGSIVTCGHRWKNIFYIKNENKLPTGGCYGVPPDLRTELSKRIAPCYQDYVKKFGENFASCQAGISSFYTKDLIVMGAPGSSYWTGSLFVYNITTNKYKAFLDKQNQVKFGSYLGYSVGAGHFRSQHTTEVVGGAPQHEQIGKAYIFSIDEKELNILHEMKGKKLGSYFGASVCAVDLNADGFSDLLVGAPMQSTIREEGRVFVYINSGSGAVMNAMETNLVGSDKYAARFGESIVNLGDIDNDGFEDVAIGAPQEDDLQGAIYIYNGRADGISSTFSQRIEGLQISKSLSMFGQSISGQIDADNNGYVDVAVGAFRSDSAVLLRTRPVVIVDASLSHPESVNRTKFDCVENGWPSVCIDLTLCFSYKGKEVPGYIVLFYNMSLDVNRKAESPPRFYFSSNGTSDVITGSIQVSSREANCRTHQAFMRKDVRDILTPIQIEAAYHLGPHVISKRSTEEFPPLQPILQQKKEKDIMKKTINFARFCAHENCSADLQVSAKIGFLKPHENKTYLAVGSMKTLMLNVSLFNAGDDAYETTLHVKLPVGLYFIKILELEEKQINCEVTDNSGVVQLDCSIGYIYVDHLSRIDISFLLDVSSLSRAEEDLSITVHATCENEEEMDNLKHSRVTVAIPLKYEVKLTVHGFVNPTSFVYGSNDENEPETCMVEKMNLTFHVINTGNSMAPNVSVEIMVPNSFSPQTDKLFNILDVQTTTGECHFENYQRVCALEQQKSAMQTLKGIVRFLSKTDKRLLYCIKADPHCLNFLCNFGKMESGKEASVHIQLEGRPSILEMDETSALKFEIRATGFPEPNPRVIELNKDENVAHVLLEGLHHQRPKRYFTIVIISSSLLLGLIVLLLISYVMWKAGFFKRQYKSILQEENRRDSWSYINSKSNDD
T1 sequence (P26010 20-798): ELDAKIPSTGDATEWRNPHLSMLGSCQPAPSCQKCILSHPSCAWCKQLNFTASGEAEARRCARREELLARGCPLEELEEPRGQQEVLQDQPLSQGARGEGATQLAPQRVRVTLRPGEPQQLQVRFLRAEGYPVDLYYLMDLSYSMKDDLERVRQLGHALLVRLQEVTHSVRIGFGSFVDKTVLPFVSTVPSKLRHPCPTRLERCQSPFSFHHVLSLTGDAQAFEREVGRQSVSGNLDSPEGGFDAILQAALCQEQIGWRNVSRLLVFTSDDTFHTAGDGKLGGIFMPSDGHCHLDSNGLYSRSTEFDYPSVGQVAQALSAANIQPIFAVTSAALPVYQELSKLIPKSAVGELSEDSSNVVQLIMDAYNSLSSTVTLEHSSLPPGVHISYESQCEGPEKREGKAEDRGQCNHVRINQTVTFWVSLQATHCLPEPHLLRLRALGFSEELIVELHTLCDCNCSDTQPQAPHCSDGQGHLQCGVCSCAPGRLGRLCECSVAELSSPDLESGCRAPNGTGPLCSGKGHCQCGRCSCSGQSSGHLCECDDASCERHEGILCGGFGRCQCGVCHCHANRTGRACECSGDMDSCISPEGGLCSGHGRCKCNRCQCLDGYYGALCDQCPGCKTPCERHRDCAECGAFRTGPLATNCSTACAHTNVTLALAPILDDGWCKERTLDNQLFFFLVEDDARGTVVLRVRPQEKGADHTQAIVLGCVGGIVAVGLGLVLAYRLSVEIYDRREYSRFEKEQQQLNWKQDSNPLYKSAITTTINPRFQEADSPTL
How it was run: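 Calcein-AM-labelled human B-lymphoma RPMI-8866 cells bound to plate-coated recombinant human VCAM-1 in HEPES/DMEM/0.1% BSA with 4 mM MnCl2, with compound, 30 min at room temperature. Unbound cells removed by shaking; bound-cell fluorescence (ex 485/em 535 nm) versus compound-free wells gave IC50, binned.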

integrin α4β1 = biological target: T2, integrin α4β1 (Homo sapiens, UniProt P05556+P13612); test: VCAM antagonist activity (VCAM-1/α4β1 binding assay); type: cell-based; details: Jurkat cells binding to VCAM-1; read-out: VCAM antagonistic activity (IC50) α4β1
T2 construct: cell strain Jurkat (ATCC TIB-152) of human T cells, known to express integrin α4β1; host or cells: Jurkat (human T cell line)
T2 sequence (P05556 21-798, one chain of several): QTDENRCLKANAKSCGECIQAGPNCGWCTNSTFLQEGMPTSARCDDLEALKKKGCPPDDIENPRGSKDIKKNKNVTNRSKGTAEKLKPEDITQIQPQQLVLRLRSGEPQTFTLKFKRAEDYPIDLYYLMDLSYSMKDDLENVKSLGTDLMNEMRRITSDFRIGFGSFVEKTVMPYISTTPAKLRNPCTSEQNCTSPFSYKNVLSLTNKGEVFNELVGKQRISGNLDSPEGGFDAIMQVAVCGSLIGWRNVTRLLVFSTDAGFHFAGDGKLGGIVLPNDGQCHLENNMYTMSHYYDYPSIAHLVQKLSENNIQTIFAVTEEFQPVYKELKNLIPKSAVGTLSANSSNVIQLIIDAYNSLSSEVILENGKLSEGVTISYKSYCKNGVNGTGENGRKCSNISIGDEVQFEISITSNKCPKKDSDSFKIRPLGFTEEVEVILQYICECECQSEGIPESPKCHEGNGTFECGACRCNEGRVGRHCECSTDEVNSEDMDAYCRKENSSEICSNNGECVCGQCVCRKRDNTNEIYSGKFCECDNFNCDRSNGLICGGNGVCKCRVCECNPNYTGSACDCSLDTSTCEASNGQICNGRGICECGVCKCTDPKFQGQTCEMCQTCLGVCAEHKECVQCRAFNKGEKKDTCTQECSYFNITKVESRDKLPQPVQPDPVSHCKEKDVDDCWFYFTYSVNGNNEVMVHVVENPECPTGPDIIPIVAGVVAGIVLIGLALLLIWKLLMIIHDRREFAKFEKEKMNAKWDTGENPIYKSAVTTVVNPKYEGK
How it was run: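 Plates coated overnight at 4° C with recombinant human VCAM-1 (500 ng/ml, pH 9.6) and blocked. Calcein-AM-labelled Jurkat cells (α4β1) added with compound in HEPES/DMEM/0.1% BSA, 30 min at room temperature; unbound cells shaken off, bound fluorescence read at 485/535 nm. IC50 from binding relative to compound-free wells.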

Structure (SMILES) | IC50 (integrin α4β7) [µM] | IC50 (integrin α4β1) [µM]
CCC(CC)(C(=O)N[C@@H](Cc1ccc(OCc2c(Cl)cccc2Cl)cc1)C(=O)O)C(=O)N1C[C@@H](O)[C@H](O)C1 (relative stereo) [Example 83, N-(2-{[(trans-3,4-dihydroxypyrrolidine)-1-yl]carbonyl}-2-ethyl-butanoyl)-O-(2,6-dichlorobenzyl)-L-tyrosine] | < 0.02 | 0.02 to 0.1
CCC(CC)(C(=O)NCCc1ccc(O)cc1)C(=O)N[C@@H](Cc1ccc(OCc2c(Cl)cccc2Cl)cc1)C(=O)O [Example 6] | 0.1 to 2 | 2 to 10
CCC(CC)(C(=O)N[C@@H](Cc1ccc(OCc2c(Cl)cccc2Cl)cc1)C(=O)O)C(=O)N1CCC[C@H]1C(N)=O [Example 67] | 0.02 to 0.1 | 0.1 to 2
CCC(CC)(C(=O)NC(Cc1ccc(OCc2c(Cl)cccc2Cl)cc1)C(=O)O)C(=O)N1CCCCC1C(N)=O (mixture of isomers) [Example 51] | 0.02 to 0.1 | 0.1 to 2
CCC(CC)(C(=O)N[C@@H](Cc1ccc(OCc2c(Cl)cccc2Cl)cc1)C(=O)O)C(=O)N1CCCC1 [Example 32] | 0.02 to 0.1 | 0.1 to 2
CN(C)C(=O)C1(C(=O)N[C@@H](Cc2ccc(NC(=O)c3cc(F)c(F)cc3Cl)cc2)C(=O)O)CC1 [Example 86] | 0.02 to 0.1 | 0.1 to 2
CCC(CC)(C(=O)N[C@@H](Cc1ccc(OCc2c(Cl)cccc2Cl)cc1)C(=O)O)C(=O)N1C[C@@H](O)[C@@H](O)C1 [Example 81, N-(2-{[(cis-3,4-dihydroxypyrrolidine)-1-yl]carbonyl}-2-ethyl-butanoyl)-O-(2,6-dichlorobenzyl)-L-tyrosine] | < 0.02 | 0.1 to 2
CN(C)C(=O)C1(C(=O)N[C@@H](Cc2ccc(NC(=O)c3cc(Br)ccc3Br)cc2)C(=O)O)CC1 [Example 88] | 0.1 to 2 | 0.1 to 2
CCC(CC)(C(=O)NC(Cc1ccc(OCc2c(Cl)cccc2Cl)cc1)C(=O)O)C(=O)N1CCC(N)C1 (mixture of isomers) [Example 47] | < 0.02 | 0.1 to 2
CCC(CC)(C(=O)N[C@@H](Cc1ccc(OCc2c(Cl)cccc2Cl)cc1)C(=O)O)C(=O)N1CCCCC1 [Example 17] | 0.1 to 2 | 0.1 to 2
CCC(CC)(C(=O)N[C@@H](Cc1ccc(OCc2c(Cl)cccc2Cl)cc1)C(=O)O)C(=O)N1CCC[C@H]1COC [Example 50] | 0.02 to 0.1 | 0.1 to 2
O=C(O)[C@H](Cc1ccc(OCc2c(Cl)cccc2Cl)cc1)NC(=O)C1(C(=O)N2CCCC2)CCOCC1 [Example 58] | 0.1 to 2 | 0.1 to 2
CCC(CC)(C(=O)N[C@@H](Cc1ccc(OCc2c(Cl)cccc2Cl)cc1)C(=O)O)C(=O)N1CCCNCC1 [Example 42] | 0.02 to 0.1 | 0.1 to 2
CCC(CC)(C(=O)N[C@@H](Cc1ccc(NC(=O)c2nc(SC)ncc2Br)cc1)C(=O)O)C(=O)N1CCCC1 [Example 477] | < 0.02 | 0.02 to 0.1
CCC(CC)(C(=O)N[C@@H](Cc1ccc(OCc2c(Cl)cccc2Cl)cc1)C(=O)O)C(=O)N1CCC[C@H]1C(=O)NC [Example 72] | < 0.02 | 0.02 to 0.1
CCC(CC)(C(=O)NC(Cc1ccc(OCc2c(Cl)cccc2Cl)cc1)C(=O)O)C(=O)N1CCCC(O)C1 (mixture of isomers) [Example 48] | 0.02 to 0.1 | 0.1 to 2
CC1(C)CC2CC(C)(CN2C(=O)C2(C(=O)NC(Cc3ccc(OCc4c(Cl)cccc4Cl)cc3)C(=O)O)CCOCC2)C1 (stereo not drawn) [Example 472] | 0.1 to 2 | 2 to 10
CCC(CC)(C(=O)N[C@@H](Cc1ccc(OCc2c(Cl)cccc2Cl)cc1)C(=O)O)C(=O)N1CCC[C@H]1CN1CCCC1 [Example 53] | < 0.02 | 0.1 to 2
CCC(CC)(C(=O)N[C@@H](Cc1ccc(NC(=O)c2ccccc2[N+](=O)[O-])cc1)C(=O)O)C(=O)N1CCCC1 [Example 97] | < 0.02 | 0.02 to 0.1
CCC(CC)(C(=O)N[C@@H](Cc1ccc(OCc2c(Cl)cccc2Cl)cc1)C(=O)O)C(=O)N1CCC(C(N)=O)CC1 [Example 39] | 0.02 to 0.1 | 0.1 to 2
CCC(CC)(C(=O)N[C@@H](Cc1ccc(OCc2c(Cl)cccc2Cl)cc1)C(=O)O)C(=O)N(C)C [Example 3] | < 0.02 | 0.1 to 2
COc1cccc(OC)c1-c1ccc(C[C@H](NC(=O)C(C)(C)C(=O)N(C)C)C(=O)O)cc1 [Example 105, N-[3-(dimethylamino)-2,2-dimethyl-3-oxopropanoyl]-4-(2,6-dimethoxyphenyl)-L-phenylalanine] | 0.02 to 0.1 | 0.1 to 2
CCC(CC)(C(=O)N[C@@H](Cc1ccc(OCc2c(Cl)cccc2Cl)cc1)C(=O)O)C(=O)N1CCN(c2ccc(O)cc2)CC1 [Example 7] | 0.1 to 2 | 0.1 to 2
CCC(CC)(C(=O)N[C@@H](Cc1ccc(OCc2c(Cl)cccc2Cl)cc1)C(=O)O)C(=O)N1CC[C@@H](NC(C)=O)C1 [Example 54] | < 0.02 | 0.02 to 0.1
CCC(CC)(C(=O)N[C@@H](Cc1ccc(OCc2c(Cl)cccc2Cl)cc1)C(=O)O)C(=O)N1CC[C@H](F)C1 [Example 80] | < 0.02 | 0.1 to 2
CN(C)C(=O)C1(C(=O)N[C@@H](Cc2ccc(NC(=O)c3cc(Br)ccc3Cl)cc2)C(=O)O)CC1 [Example 87] | 0.02 to 0.1 | 0.1 to 2
CCC(CC)(C(=O)N[C@@H](Cc1ccc(NC(=O)c2nc(NC)ncc2Cl)cc1)C(=O)O)C(=O)N1CCCC1 [Example 484] | < 0.02 | 0.02 to 0.1
CCC(CC)(C(=O)N[C@@H](Cc1ccc(NC(=O)c2c(F)cccc2C(F)(F)F)cc1)C(=O)O)C(=O)N1CCCC1 [Example 92, N-(2-pyrrolidine-1-ylcarbonyl-2-ethyl-butanoyl)-4-({[2-fluoro-6-(trifluoromethyl)phenyl]carbonyl}amino)-L-phenylalanine] | < 0.02 | 0.02 to 0.1
CCC(CC)(C(=O)N[C@@H](Cc1ccc(OCc2c(Cl)cccc2Cl)cc1)C(=O)O)C(=O)N1CCN(C=O)CC1 [Example 45] | 0.02 to 0.1 | 0.1 to 2
O=C(O)[C@H](Cc1ccc(OCc2c(Cl)cccc2Cl)cc1)NC(=O)C1(C(=O)N2CC[C@@H](O)C2)CCOCC1 [Example 467] | < 0.02 | 0.1 to 2
